Tests used:
Colo205 cells = experiment: Cell-based proliferation assay for determination of GI50 values (CyQUANT); design: species or system human; conditions: Homo sapiens
Description: Cell-Based Proliferation Assay for Determination of GI50 Values
Human cancer cell lines (e.g. Colo205) were obtained from ATCC. Colo205 cells were cultivated in RPMI 1640 containing 2 mM L-Glutamine, 5% FBS, 1.0 mM Na Pyruvate. Colo205 cells were seeded in 96-wells plate at 5000 cells per well. The plates were incubated at 37° C., 5% CO2, for 24 h. Cells were treated with compounds at various concentrations for 96 h. Cell growth was then monitored using CyQUANT® cell proliferation assay (Invitrogen Pte Ltd). Dose response curves were plotted to determine GI50 values for the compounds using XL-fit (ID Business Solution, Emeryville, Calif.). GI50 is defined as the concentration of compound required for 50% inhibition of cell growth.
The cellular or growth inhibition activity results of representative compounds are shown in Table 4 below (unit in the table is micromolar).

[1] = target: HDAC1 enzyme (recombinant GST-HDAC1) (Homo sapiens (Human), UniProt Q13547); experiment: In vitro HDAC assay for determination of IC50 values (BIOMOL fluorescent-based HDAC activity assay); format: biochemical; conditions: Flur de lys substrate, 2 h room temperature, read-out: IC50 (HDAC 1)
Description: Biological Testing and Enzyme Assays Recombinant GST-HDAC1 Protein Expression and Purification
Human cDNA library was prepared using cultured SW620 cells. Amplification of human HDAC1 coding region from this cDNA library was cloned separately into the baculovirus expression pDEST20 vector (GATEWAY Cloning Technology, Invitrogen Pte Ltd). The pDEST20-HDAC1 construct was confirmed by DNA sequencing. Recombinant baculovirus was prepared using the Bac-To-Bac method following the manufacturer's instruction (Invitrogen Pte Ltd).
Expression of GST-HDAC1 was done by infecting SF9 cells (Invitrogen Pte Ltd) with pDEST20-HDAC1 baculovirus at MOI=1 for 48 h. Soluble cell lysate was incubated with pre-equilibrated Glutathione Sepharose 4B beads (Amersham) at 4° C. for 2 h. The beads were washed with PBS buffer for 3 times. The GST-HDAC1 protein was eluted by elution buffer containing 50 mM Tris, pH8.0, 150 mM NaCl, 1% Triton X-100 and 10 mM or 20 mM reduced Glutathione. The purified GST-HDAC1 protein was dialyzed with HDAC storage buffer containing 10 mM Tris, pH7.5, 100 mM NaCl and 3 mM MgCl2. 20% Glycerol was added to purified GST-HDAC1 protein before storage at −80° C.
In Vitro HDAC Assay for Determination of IC50 Values
The assay has been carried out in 96 well format and the BIOMOL fluorescent-based HDAC activity assay has been applied. […] Flur de lys Developer was added and the reaction was incubated for 10 min. Briefly, deacetylation of the substrate sensitizes it to the developer, which then generates a fluorophore. The fluorophore is excited with 360 nm light and the emitted light (460 nm) is detected on a fluorometric plate reader (Tecan Ultra Microplate detection system, Tecan Group Ltd.).
The analytical software, Prism 4.0 (GraphPad Software Inc) has been used to generate IC50 from a series of data.

HDAC1 enzyme (recombinant GST-HDAC1), sequence (Q13547 whole entry): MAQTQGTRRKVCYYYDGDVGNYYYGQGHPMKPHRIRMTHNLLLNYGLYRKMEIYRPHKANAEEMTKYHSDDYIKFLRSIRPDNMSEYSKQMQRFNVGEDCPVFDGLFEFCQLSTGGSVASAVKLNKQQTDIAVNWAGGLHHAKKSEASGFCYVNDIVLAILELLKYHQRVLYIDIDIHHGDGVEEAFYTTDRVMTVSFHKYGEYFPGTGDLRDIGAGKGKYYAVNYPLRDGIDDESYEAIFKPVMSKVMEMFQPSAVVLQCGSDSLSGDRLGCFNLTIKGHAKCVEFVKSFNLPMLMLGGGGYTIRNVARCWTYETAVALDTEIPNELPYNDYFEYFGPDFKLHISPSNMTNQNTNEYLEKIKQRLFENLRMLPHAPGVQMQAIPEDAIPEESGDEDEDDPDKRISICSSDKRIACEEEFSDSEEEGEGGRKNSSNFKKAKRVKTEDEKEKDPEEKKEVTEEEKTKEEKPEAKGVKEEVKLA

| Structure (SMILES) | GI50 (Colo205 cells; COLO 205, 96 h treatment) [nM] | IC50 [1] [nM] | GI50 (Colo205 cells; COLO 205, 96 h, 96 h treatment) [nM] |
| --- | --- | --- | --- |
| CCN(CC)Cc1c(-c2ccccc2)nc2cc(/C=C/C(=O)NO)ccn12 [Compound 51, 3-(3-Diethylaminomethyl-2-phenyl-imidazo[1,2-a]pyridin-7-yl)-N-hydroxy-acrylamide] | 1100 | 200 | – |
| CCCN(CC)Cc1c(-c2ccccc2)nc2cc(/C=C/C(=O)NO)ccn12 [Compound 52, 3-{3-[(Ethyl-propyl-amino)-methyl]-2-phenyl-imidazo[1,2-a]pyridin-7-yl}-N-hydroxy-acrylamide] | 1200 | 240 | – |
| CCCN(Cc1c(-c2ccccc2)nc2cc(/C=C/C(=O)NO)ccn12)CC1CC1 [Compound 53, 3-{3-[(Cyclopropylmethyl-propyl-amino)-methyl]-2-phenyl-imidazo[1,2a]pyridin-7-yl}-N-hydroxy-acrylamide] | 2900 | 600 | – |
| CCCN(Cc1c(-c2ccccc2)nc2cc(/C=C/C(=O)NO)ccn12)C(C)CC (stereo not shown) [Compound 54, 3-{3-[(sec-Butyl-propyl-amino)-methyl]-2-phenyl-imidazo[1,2-a]pyridin-7-yl}-N-hydroxy-acrylamide] | 4700 | 1000 | – |
| CC1CN(Cc2c(-c3ccccc3)nc3cc(/C=C/C(=O)NO)ccn23)CC(C)O1 (stereo not shown) [Compound 55, 3-[3-(2,6-Dimethyl-morpholin-4-ylmethyl)-2-phenyl-imidazo[1,2-a]pyridin-7-yl]-N-hydroxy-acrylamide] | 9300 | 2400 | – |
| CCN(CCOC)Cc1c(-c2ccccc2)nc2cc(/C=C/C(=O)NO)ccn12 [Compound 56, 3-(3-{[Ethyl-(2-methoxy-ethyl)-amino]-methyl}-2-phenyl-imidazo[1,2-a]pyridin-7-yl)-N-hydroxy-acrylamide] | 9000 | 1600 | – |
| CCN1CCN(Cc2c(-c3ccccc3)nc3cc(/C=C/C(=O)NO)ccn23)CC1 [Compound 57, 3-[3-(4-Ethyl-piperazin-1-ylmethyl)-2-phenyl-imidazo[1,2-a]pyridin-7-yl]-N-hydroxy-acrylamide] | 14000 | 4600 | – |
| O=C(C=Cc1ccn2c(CN3CCC(Cc4ccccc4)CC3)c(-c3ccccc3)nc2c1)NO [Compound 58, 3-[3-(4-Benzyl-piperidin-1-ylmethyl)-2-phenyl-imidazo[1,2-a]pyridin-7-yl]-N-hydroxy-acrylamide] | 2900 | 1500 | – |
| CC(C)(C)CNCc1c(-c2ccccc2)nc2cc(/C=C/C(=O)NO)ccn12 [Compound 59, 3-{3-[(2,2-Dimethyl-propylamino)-methyl]-2-phenyl-imidazo[1,2-a]pyridin-7-yl}-N-hydroxy-acrylamide] | 2100 | 230 | – |
| O=C(/C=C/c1ccn2c(CNCC3CC3)c(-c3ccccc3)nc2c1)NO [Compound 61, 3-{3-[(Cyclopropylmethyl-amino)-methyl]-2-phenyl-imidazo[1,2-a]pyridin-7-yl}-N-hydroxy-acrylamide] | 560 | 80 | – |
| O=C(/C=C/c1ccn2c(CNC3CC3)c(-c3ccccc3)nc2c1)NO [Compound 62, 3-(3-Cyclopropylaminomethyl-2-phenyl-imidazo[1,2-a]pyridin-7-yl)-N-hydroxy-acrylamide] | 2500 | 310 | – |
| CC(C)(C)NCc1c(-c2ccccc2)nc2ccc(/C=C/C(=O)NO)cn12 [Compound 65, 3-[3-(tert-Butylamino-methyl)-2-phenyl-imidazo[1,2-a]pyridin-6-yl]-N-hydroxy-acrylamide] | 62000 | > 10000 | – |
| CCCCNCc1c(-c2ccccc2)nc2ccc(/C=C/C(=O)NO)cn12 [Compound 66, 3-(3-Butylaminomethyl-2-phenyl-imidazo[1,2-a]pyridin-6-yl)-N-hydroxy-acrylamide] | 55000 | > 10000 | – |
| CC(C)(C)CNCc1c(C(C)(C)C)nc2cc(/C=C/C(=O)NO)ccn12 [Compound 67, 3-[2-tert-Butyl-3-[(2,2-dimethyl-propylamino)-methyl]-imidazo[1,2-a]pyridin-7-yl]-N-hydroxy-acrylamide] | 1500 | 190 | – |
| CC(C)(C)NCc1c(C(C)(C)C)nc2cc(/C=C/C(=O)NO)ccn12 [Compound 69, 3-[2-tert-Butyl-3-(tert-butylamino-methyl)-imidazo[1,2-a]pyridin-7-yl]-N-hydroxy-acrylamide] | 740 | 130 | – |
| CC(C)(C)NCc1c(-c2ccccc2)nc2cc(C(=O)NO)ccn12 [Compound 70, 3-(tert-Butylamino-methyl)-2-phenyl-imidazo[1,2-a]pyridine-7-carboxylic acid hydroxyamide] | > 100000 | > 10000 | – |

The next lines start with the values.

| GI50 (Colo205 cells; COLO 205, 96 h treatment) [nM] | IC50 [1] [nM] | GI50 (Colo205 cells; COLO 205, 96 h, 96 h treatment) [nM] | Structure (SMILES) |
| --- | --- | --- | --- |
| 1000 | 120 | – | CCCCN(C)Cc1c(-c2ccccc2)nc2cc(/C=C/C(=O)NO)ccn12 [Compound 71, 3-{3-[(Butyl-methyl-amino)-methyl]-2-phenyl-imidazo[1,2-a]pyridin-7-yl}-N-hydroxy-acrylamide] |
| 180 | 20 | – | CCCCNCc1c(CCCC)nc2cc(/C=C/C(=O)NO)ccn12 [Compound 72, 3-(2-Butyl-3-butylaminomethyl-imidazo[1,2-a]pyridin-7-yl)-N-hydroxy-acrylamide] |
| – | 20 | 140 | CCCCc1nc2cc(/C=C/C(=O)NO)ccn2c1CNC(C)(C)C [Compound 73, 3-[2-Butyl-3-(tert-butylamino-methyl)-imidazo[1,2-a]pyridin-7-yl]-N-hydroxy-acrylamide] |
| 610 | 200 | – | CCCCc1nc2cc(/C=C/C(=O)NO)ccn2c1CN(CCC)CCC [Compound 74, 3-(2-Butyl-3-dipropylaminomethyl-imidazo[1,2-a]pyridin-7-yl)-N-hydroxy-acrylamide] |
| 680 | 180 | – | CCCCc1nc2cc(/C=C/C(=O)NO)ccn2c1CN(CC)CC [Compound 75, 3-(2-Butyl-3-diethylaminomethyl-imidazo[1,2-a]pyridin-7-yl)-N-hydroxy-acrylamide] |
| 170 | 70 | – | CCCCc1nc2cc(/C=C/C(=O)NO)ccn2c1CN(C)CCCC [Compound 76, 3-{2-Butyl-3-[(butyl-methyl-amino)-methyl]-imidazo[1,2-a]pyridin-7-yl}-N-hydroxy-acrylamide] |
| 160 | 60 | – | CCCCc1nc2cc(/C=C/C(=O)NO)ccn2c1CN(CC)CCCC [Compound 77, 3-{2-Butyl-3-[(butyl-ethyl-amino)-methyl]-imidazo[1,2-a]pyridin-7-yl}-N-hydroxy-acrylamide] |
| 580 | 90 | – | CCCCc1nc2cc(/C=C/C(=O)NO)ccn2c1CN(CCC)CCCC [Compound 78, 3-{2-Butyl-3-[(butyl-propyl-amino)-methyl]-imidazo[1,2-a]pyridin-7-yl}-N-hydroxy-acrylamide] |
| > 100000 | > 10000 | – | CCN(CC)Cc1c(-c2ccccc2)nc2cc(C(=O)NO)ccn12 [Compound 79, 3-Diethylaminomethyl-2-phenyl-imidazo[1,2-a]pyridine-7-carboxylic acid hydroxyamide] |
| – | 1200 | 4400 | CCN(CC)Cc1c(C(C)(C)C)nc2cc(/C=C/C(=O)NO)ccn12 [Compound 80, 3-(2-tert-Butyl-3-diethylaminomethyl-imidazo[1,2-a]pyridin-7-yl)-N-hydroxy-acrylamide] |

From patent US8648092B2, “Imidazo[1,2-a]pyridine derivatives: preparation and pharmaceutical applications” (MEI Pharma, priority 2005, dated 2014)
